Data as given in paper PMC7265341, “Quantifying CDK inhibitor selectivity in live cells” (Nature Communications, 2020).
Where two headings read alike, the source gives them in different places.

Tests used:
CDK4/Cyclin D1 = CDK4/Cyclin D1 (Homo sapiens, UniProt P11802); assay: NanoBRET live-cell target engagement, NanoLuc-CDK4/Cyclin D1 in HEK-293; format: binding; conditions: for inhibition at 10 µM: read-out: CDK4/D1 Inhibition at 10µM (%); for IC50: read-out: CDK4/D1 IC50
CDK3/Cyclin E1 = CDK3/Cyclin E1 (Homo sapiens, UniProt Q00526); assay: NanoBRET live-cell target engagement, CDK3-NanoLuc/Cyclin E1 in HEK-293; format: binding; conditions: for inhibition at 10 µM: read-out: CDK3/E1 Inhibition at 10µM (%); for IC50: read-out: CDK3/E1 IC50
Chain of CDK3/Cyclin E1 (Q00526 whole entry): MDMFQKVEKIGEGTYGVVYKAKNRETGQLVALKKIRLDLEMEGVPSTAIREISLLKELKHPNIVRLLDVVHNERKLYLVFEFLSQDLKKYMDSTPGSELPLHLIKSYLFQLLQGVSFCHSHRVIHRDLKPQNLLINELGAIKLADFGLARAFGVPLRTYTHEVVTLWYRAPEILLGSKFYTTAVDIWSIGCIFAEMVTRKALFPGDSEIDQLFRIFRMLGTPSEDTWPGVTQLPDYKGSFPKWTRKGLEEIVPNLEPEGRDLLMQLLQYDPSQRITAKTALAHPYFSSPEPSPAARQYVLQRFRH
Chain of CDK3/Cyclin E1 (P24864 whole entry partner): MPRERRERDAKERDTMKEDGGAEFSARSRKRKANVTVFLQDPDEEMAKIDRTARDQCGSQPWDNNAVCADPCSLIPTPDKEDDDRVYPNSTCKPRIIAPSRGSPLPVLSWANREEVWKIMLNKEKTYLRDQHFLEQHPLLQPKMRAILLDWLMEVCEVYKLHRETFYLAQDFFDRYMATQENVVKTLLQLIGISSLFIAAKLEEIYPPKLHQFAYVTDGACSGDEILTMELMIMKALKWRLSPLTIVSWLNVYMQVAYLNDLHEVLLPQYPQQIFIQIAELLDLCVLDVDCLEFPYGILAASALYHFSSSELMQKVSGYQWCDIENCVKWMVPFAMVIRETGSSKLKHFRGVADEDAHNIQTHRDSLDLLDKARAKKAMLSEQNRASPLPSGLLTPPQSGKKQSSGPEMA

CDK14/Cyclin Y = CDK14/Cyclin Y (Homo sapiens, UniProt O94921); assay: NanoBRET live-cell target engagement, CDK14-NanoLuc/Cyclin Y in HEK-293; format: binding; conditions: for inhibition at 10 µM: read-out: CDK14/Y Inhibition at 10µM (%), 10µM
Chain of CDK14/Cyclin Y (O94921 whole entry): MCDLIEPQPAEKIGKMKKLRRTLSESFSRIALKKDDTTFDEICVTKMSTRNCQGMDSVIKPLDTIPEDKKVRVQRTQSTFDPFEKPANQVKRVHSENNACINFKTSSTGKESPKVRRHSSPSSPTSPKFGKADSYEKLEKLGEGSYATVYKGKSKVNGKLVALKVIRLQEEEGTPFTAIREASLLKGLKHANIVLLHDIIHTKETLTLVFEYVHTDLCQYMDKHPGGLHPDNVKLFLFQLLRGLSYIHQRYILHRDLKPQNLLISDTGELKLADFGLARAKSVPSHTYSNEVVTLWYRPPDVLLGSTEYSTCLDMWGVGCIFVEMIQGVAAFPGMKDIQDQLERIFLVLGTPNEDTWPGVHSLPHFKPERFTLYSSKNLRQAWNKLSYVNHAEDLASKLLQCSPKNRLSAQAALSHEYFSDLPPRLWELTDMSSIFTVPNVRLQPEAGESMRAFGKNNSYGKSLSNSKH
Chain of CDK14/Cyclin Y (Q8ND76 whole entry partner): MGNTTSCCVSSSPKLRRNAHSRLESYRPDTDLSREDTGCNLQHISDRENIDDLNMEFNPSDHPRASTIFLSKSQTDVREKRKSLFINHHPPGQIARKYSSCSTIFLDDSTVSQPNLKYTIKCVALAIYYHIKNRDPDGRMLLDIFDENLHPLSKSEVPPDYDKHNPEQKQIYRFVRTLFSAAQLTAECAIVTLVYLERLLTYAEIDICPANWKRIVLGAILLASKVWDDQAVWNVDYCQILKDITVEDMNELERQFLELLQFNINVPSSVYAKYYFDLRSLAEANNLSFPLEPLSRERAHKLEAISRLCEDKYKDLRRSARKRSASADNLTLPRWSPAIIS

CDK11A/Cyclin L2 = target: T1, CDK11A/Cyclin L2 (Homo sapiens, UniProt Q9UQ88); assay: NanoBRET live-cell target engagement, CDK11A-NanoLuc/Cyclin L2 in HEK-293; format: binding; conditions: read-out: CDK11a/L2 Inhibition at 10µM (%), 10µM
T1 sequence (Q9UQ88 1-783): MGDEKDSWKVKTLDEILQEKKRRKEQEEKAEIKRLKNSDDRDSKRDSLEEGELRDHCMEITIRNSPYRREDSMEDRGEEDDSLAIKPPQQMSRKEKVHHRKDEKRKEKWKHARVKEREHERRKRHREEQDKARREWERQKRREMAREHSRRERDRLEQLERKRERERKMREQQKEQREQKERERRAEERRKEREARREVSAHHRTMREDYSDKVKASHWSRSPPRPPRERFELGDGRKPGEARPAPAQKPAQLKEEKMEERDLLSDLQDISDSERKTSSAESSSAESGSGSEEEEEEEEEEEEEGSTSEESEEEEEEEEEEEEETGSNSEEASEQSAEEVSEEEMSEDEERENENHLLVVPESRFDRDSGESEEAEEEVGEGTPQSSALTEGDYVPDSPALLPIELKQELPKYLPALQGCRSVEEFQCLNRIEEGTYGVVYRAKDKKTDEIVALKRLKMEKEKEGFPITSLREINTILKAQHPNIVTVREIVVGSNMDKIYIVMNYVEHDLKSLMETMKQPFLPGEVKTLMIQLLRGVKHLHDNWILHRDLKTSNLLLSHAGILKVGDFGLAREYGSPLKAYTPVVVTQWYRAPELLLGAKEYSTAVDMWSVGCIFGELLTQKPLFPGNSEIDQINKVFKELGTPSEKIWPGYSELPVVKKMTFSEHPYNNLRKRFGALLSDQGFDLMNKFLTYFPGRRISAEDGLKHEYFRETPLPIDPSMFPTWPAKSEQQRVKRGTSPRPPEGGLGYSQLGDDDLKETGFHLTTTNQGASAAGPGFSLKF

CDK13/Cyclin K = CDK13/Cyclin K (Homo sapiens, UniProt Q14004); assay: NanoBRET live-cell target engagement, CDK13-NanoLuc/Cyclin K in HEK-293; format: binding; conditions: 10µM, read-out: CDK13/K Inhibition at 10µM (%)
Chain of CDK13/Cyclin K (O75909 whole entry): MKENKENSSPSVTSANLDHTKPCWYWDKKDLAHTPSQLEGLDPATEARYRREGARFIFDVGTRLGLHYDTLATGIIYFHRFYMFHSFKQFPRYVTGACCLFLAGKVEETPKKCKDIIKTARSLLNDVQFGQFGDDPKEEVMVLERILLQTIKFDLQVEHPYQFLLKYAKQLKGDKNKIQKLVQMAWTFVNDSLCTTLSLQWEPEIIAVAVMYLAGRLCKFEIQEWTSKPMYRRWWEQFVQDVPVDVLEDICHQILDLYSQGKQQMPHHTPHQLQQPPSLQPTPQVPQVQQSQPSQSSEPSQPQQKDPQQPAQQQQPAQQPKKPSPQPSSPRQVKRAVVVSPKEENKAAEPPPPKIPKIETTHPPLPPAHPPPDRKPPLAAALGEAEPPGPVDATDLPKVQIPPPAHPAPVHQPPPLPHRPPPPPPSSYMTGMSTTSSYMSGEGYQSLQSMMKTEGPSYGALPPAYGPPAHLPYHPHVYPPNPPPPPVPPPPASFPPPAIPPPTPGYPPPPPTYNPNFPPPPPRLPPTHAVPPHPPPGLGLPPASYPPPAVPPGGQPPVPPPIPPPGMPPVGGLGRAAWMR
Chain of CDK13/Cyclin K (Q14004 other isoform, or with tags, fused parts or gaps): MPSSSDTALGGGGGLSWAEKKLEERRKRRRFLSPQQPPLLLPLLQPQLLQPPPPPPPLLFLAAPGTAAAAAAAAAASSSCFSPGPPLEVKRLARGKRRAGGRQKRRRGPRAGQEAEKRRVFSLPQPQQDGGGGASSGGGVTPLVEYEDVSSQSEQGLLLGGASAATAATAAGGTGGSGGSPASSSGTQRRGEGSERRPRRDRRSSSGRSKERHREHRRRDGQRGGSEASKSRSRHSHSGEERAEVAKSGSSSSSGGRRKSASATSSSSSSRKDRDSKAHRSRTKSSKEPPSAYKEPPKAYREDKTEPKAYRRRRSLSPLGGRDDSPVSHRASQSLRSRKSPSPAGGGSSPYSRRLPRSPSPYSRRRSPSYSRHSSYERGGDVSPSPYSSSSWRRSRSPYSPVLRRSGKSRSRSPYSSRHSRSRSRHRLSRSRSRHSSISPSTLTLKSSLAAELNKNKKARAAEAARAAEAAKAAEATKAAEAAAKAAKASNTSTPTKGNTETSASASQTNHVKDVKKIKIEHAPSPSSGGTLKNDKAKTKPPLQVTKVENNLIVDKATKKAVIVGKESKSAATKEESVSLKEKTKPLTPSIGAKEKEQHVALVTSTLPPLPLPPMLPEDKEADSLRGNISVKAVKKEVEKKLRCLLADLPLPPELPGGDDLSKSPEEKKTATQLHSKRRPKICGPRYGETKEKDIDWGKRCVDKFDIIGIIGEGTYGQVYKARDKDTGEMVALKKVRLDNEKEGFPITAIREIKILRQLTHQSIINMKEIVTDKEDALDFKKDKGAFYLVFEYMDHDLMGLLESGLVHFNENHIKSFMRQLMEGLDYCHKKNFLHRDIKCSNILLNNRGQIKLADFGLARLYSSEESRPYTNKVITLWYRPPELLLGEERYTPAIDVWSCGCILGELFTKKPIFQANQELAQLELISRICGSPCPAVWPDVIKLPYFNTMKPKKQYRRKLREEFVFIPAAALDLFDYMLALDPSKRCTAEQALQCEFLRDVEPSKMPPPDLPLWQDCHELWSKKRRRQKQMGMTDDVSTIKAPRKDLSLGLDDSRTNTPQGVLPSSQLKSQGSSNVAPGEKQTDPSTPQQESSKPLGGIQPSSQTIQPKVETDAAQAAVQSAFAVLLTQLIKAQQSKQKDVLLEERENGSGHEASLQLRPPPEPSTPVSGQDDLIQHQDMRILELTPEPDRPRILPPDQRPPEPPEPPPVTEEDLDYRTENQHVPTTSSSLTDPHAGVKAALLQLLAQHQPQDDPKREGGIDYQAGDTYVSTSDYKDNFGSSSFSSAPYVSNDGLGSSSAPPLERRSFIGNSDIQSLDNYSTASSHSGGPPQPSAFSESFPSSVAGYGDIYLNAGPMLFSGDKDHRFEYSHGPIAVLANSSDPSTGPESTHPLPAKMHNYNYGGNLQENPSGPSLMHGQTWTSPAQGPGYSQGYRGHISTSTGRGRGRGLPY

CDK15/Cyclin Y = CDK15/Cyclin Y (Homo sapiens, UniProt Q96Q40); assay: NanoBRET live-cell target engagement, NanoLuc-CDK15/Cyclin Y in HEK-293; format: binding; conditions: for inhibition at 10 µM: read-out: CDK15/Y Inhibition at 10µM (%), 10µM
CDK9/Cyclin K = CDK9/Cyclin K (Homo sapiens, UniProt P50750); assay: NanoBRET live-cell target engagement, NanoLuc-CDK9/Cyclin K in HEK-293; format: binding; conditions: 10µM, read-out: CDK9/K Inhibition at 10µM (%)
Chain of CDK9/Cyclin K (P50750 whole entry): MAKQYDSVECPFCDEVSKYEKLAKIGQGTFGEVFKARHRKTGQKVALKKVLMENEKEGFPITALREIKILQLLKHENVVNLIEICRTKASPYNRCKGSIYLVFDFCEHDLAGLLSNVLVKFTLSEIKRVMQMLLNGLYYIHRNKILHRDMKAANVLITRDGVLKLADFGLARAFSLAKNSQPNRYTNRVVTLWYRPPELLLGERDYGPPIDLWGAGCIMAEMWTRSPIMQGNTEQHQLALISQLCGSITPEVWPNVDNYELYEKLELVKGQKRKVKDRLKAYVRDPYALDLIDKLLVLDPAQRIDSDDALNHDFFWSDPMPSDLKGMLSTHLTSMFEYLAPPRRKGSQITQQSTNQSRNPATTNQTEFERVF
Chain of CDK9/Cyclin K (O75909 whole entry partner): as the sequence (O75909 whole entry) above

CDK8/Cyclin C = CDK8/Cyclin C (Homo sapiens, UniProt P49336); assay: NanoBRET live-cell target engagement, NanoLuc-CDK8/Cyclin C in HEK-293; format: binding; conditions: 10µM, read-out: CDK8/C Inhibition at 10µM (%)
CDK7 = CDK7 (Homo sapiens, UniProt P50613); assay: NanoBRET live-cell target engagement, NanoLuc-CDK7 in HEK-293; format: binding; conditions: for inhibition at 10 µM: read-out: CDK7 Inhibition at 10µM (%); for CDK7 Occupancy (%): Panel A
Chain of CDK7 (P50613 whole entry): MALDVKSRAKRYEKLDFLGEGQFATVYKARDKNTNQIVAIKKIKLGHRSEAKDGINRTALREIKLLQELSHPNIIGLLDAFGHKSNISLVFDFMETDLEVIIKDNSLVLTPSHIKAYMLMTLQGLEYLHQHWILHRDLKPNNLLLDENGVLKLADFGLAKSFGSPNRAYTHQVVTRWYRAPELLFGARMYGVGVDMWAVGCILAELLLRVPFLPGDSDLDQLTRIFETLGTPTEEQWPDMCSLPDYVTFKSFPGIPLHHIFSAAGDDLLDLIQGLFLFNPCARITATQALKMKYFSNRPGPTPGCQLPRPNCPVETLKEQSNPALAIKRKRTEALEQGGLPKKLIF

CDK19/Cyclin C = CDK19/Cyclin C (Homo sapiens, UniProt Q9BWU1); assay: NanoBRET live-cell target engagement, NanoLuc-CDK19/Cyclin C in HEK-293; conditions: read-out: CDK19/C Inhibition at 10µM (%), 10µM; average of experiments

Chain of CDK4/Cyclin D1 (P11802 whole entry): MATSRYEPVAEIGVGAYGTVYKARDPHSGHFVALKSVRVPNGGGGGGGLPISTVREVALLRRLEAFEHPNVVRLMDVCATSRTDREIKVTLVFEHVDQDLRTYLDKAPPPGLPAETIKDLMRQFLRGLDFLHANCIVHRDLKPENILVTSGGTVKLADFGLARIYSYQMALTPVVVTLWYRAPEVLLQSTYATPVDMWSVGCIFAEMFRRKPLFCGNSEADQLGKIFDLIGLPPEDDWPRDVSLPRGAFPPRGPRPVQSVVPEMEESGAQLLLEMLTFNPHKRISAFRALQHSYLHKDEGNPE
Chain of CDK4/Cyclin D1 (P24385 whole entry partner): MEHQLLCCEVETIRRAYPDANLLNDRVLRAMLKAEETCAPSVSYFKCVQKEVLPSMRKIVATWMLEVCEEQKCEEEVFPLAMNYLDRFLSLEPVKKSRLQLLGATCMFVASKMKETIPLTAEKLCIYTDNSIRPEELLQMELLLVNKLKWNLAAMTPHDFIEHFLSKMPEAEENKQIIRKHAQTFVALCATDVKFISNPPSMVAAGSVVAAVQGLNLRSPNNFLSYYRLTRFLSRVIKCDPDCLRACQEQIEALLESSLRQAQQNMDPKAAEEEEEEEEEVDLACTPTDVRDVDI

COCCN1CCN(Cc2ccc(-c3n[nH]c4c3C(=O)c3c(NC(=O)NN5CCOCC5)cccc3-4)cc2)CC1 [RGB286638]
inhibition at 10 µM (CDK4/Cyclin D1; average of experiments): 99.8%
inhibition at 10 µM (CDK4/Cyclin D1; independent experiment 1): 99.7%
inhibition at 10 µM (CDK4/Cyclin D1; independent experiment 2): 100%
IC50 (CDK4/Cyclin D1; average (± SEM where n=3)): 10 nM
IC50 (CDK4/Cyclin D1; independent experiment 1): 9.6 nM
IC50 (CDK4/Cyclin D1; independent experiment 2): 11 nM
inhibition at 10 µM (CDK3/Cyclin E1; average of experiments): 91.3%
inhibition at 10 µM (CDK3/Cyclin E1; independent experiment 1): 89.1%
inhibition at 10 µM (CDK3/Cyclin E1; independent experiment 2): 93.6%
IC50 (CDK3/Cyclin E1; average (± SEM where n=3)): 12 nM
IC50 (CDK3/Cyclin E1; independent experiment 1): 14 nM
IC50 (CDK3/Cyclin E1; independent experiment 2): 10 nM
IC50 (CDK14/Cyclin Y; average (± SEM where n=3), read-out: CDK14/Y IC50): 31 nM
IC50 (CDK14/Cyclin Y; independent experiment 1, read-out: CDK14/Y IC50): 30 nM
IC50 (CDK14/Cyclin Y; independent experiment 2, read-out: CDK14/Y IC50): 31 nM
IC50 (CDK14/Cyclin Y; live HEK-293, 2 h, mean ± S.E.M. (n=3) or mean (n=2), read-out: IC50 for CDK/cyclin complexes, CDK14/Y): 31 nM
inhibition at 10 µM (CDK14/Cyclin Y; average of experiments): 95.9%
inhibition at 10 µM (CDK14/Cyclin Y; independent experiment 1): 94.1%
inhibition at 10 µM (CDK14/Cyclin Y; independent experiment 2): 97.8%
inhibition at 10 µM (CDK11A/Cyclin L2; average of experiments): 41.5%
inhibition at 10 µM (CDK11A/Cyclin L2; independent experiment 1): 16.8%
inhibition at 10 µM (CDK11A/Cyclin L2; independent experiment 2): 66.3%
inhibition at 10 µM (CDK13/Cyclin K; average of experiments): 49.1%
inhibition at 10 µM (CDK13/Cyclin K; independent experiment 1): 33.8%
inhibition at 10 µM (CDK13/Cyclin K; independent experiment 2): 64.5%
IC50 (CDK15/Cyclin Y; average (± SEM where n=3), read-out: CDK15/Y IC50): 14 nM
IC50 (CDK15/Cyclin Y; independent experiment 1, read-out: CDK15/Y IC50): 14 nM
IC50 (CDK15/Cyclin Y; independent experiment 2, read-out: CDK15/Y IC50): 13 nM
IC50 (CDK15/Cyclin Y; live HEK-293, 2 h, mean ± S.E.M. (n=3) or mean (n=2), read-out: IC50 for CDK/cyclin complexes, CDK15/Y): 14 nM
inhibition at 10 µM (CDK15/Cyclin Y; average of experiments): 97.4%
inhibition at 10 µM (CDK15/Cyclin Y; independent experiment 1): 96.5%
inhibition at 10 µM (CDK15/Cyclin Y; independent experiment 2): 98.2%
inhibition at 10 µM (CDK9/Cyclin K; average of experiments): 94.7%
inhibition at 10 µM (CDK9/Cyclin K; independent experiment 1): 90.7%
inhibition at 10 µM (CDK9/Cyclin K; independent experiment 2): 98.8%
inhibition at 10 µM (CDK8/Cyclin C; average of experiments): 55.6%
inhibition at 10 µM (CDK8/Cyclin C; independent experiment 1): 21.9%
inhibition at 10 µM (CDK8/Cyclin C; independent experiment 2): 89.3%
inhibition at 10 µM (CDK7; average of experiments): 93.9%
inhibition at 10 µM (CDK7; independent experiment 1): 91%
inhibition at 10 µM (CDK7; independent experiment 2): 96.7%
CDK7 Occupancy (%) (CDK7; LOG10([RGB-286638]) 0.045757 LOG10(µM)): 97.0886%
CDK7 Occupancy (%) (CDK7; LOG10([RGB-286638]) 0.522879 LOG10(µM)): 96.5823%
CDK7 Occupancy (%) (CDK7; LOG10([RGB-286638]) 1 LOG10(µM)): 97.4684%
CDK7 Occupancy (%) (CDK7; LOG10([RGB-286638]) -0.43136 LOG10(µM)): 93.9241%
CDK7 Occupancy (%) (CDK7; LOG10([RGB-286638]) -0.90849 LOG10(µM)): 87.0886%
CDK7 Occupancy (%) (CDK7; LOG10([RGB-286638]) -1.38561 LOG10(µM)): 72.7848%
CDK7 Occupancy (%) (CDK7; LOG10([RGB-286638]) -1.86273 LOG10(µM)): 53.2911%
CDK7 Occupancy (%) (CDK7; LOG10([RGB-286638]) -2.33985 LOG10(µM)): 31.2658%
CDK7 Occupancy (%) (CDK7; LOG10([RGB-286638]) -2.81697 LOG10(µM)): 12.6582%
CDK7 Occupancy (%) (CDK7; LOG10([RGB-286638]) -3.29409 LOG10(µM)): 6.329%
CDK7 Occupancy (%) (CDK7; LOG10([RGB-286638]) -3.77121 LOG10(µM)): 1.266%
IC50 (CDK7; average (± SEM where n=3), read-out: CDK7 IC50): 16 ± 5 nM
IC50 (CDK7; independent experiment 1, read-out: CDK7 IC50): 11 nM
IC50 (CDK7; independent experiment 2, read-out: CDK7 IC50): 11 nM
IC50 (CDK7; independent experiment 3, read-out: CDK7 IC50): 26 nM
IC50 (CDK7; live HEK-293, 2 h, mean ± S.E.M. (n=3) or mean (n=2), read-out: IC50 for CDK/cyclin complexes, CDK7): 12 to 16 nM
inhibition at 10 µM (CDK19/Cyclin C): 58%
